Laboratory results published in patent publication US6344456B1, “Piperazinone derivatives and their uses” (Laboratoire L. Lafon, priority 1998, dated 2002).
Structures can show the parent of a compound that is named as a salt. Where two headings read alike, the source gives them in different places.

Legend:
Human Platelets = assay: In vitro inhibition of collagen-induced platelet aggregation, human platelet-rich plasma; format: cell-based; settings: human PRP, collagen 5 μg/ml, 3 minutes of contact at 37° C., read-out: IC50 (M) in vitro Man
Procedure: A study of the inhibitory activity of the compounds of formula I on platelet aggregation was carried out in vitro, i.e. by direct contact of solutions of variable concentrations of the compounds with platelets freshly separated from a sample of whole blood, taken under standardized conditions, from laboratory animals (guinea pigs) and from healthy human subjects who have not received any substances or drugs that might interfere with blood clotting. The anti-platelet-aggregating activity was also studied ex vivo/vitro, i.e. after administration of the substances claimed in guinea pigs to measure the intensity and duration of the anti-aggregating action induced by the fraction of the test product absorbed and circulating in the blood. 1.2 Study on Human Platelets Venous blood is taken from a group of ten healthy human subjects of the same age, by puncture into a vein of the fold of the elbow and is collected in a glass tube containing aqueous 0.129 M sodium citrate solution (1 volume of citrate solution per 9 volumes of blood). Each tube is then centrifuged a first time at 20° C. and 100 g for 15 minutes in order to obtain the platelet-rich plasma (PRP); after removing this PRP, the tube is again centrifuged at 2,000 g for 15 minutes in order this time to remove the platelet-poor plasma (PPP). For each identified sample of PRP, the platelets are counted using a Coulter ZM counter. […] A control test intended to check the possible effect of the solvents (reference value) on the platelet aggregation is introduced into each measurement series, and is measured after 3 minutes of contact at 37° C. with agitation.

[1] = system: platelet aggregation induced by collagen; assay: Ex vivo/vitro anti-platelet-aggregating activity in guinea pigs after gastric administration; set-up: species or system guinea pig; settings: for % of g.r. inhibition guinea pig ex vivo d = 150 mg/kg −1 h: administered 1 h before blood is taken; for % of g.r. inhibition guinea pig ex vivo d = 150 mg/kg −2 h: administered 2 h before blood is taken; for anti-aggregating action ex-vivo in guinea pigs, oral dose 10 mg/kg, 1h: administered 1h before the aggregation test; for anti-aggregating action ex-vivo in guinea pigs, oral dose 10 mg/kg, 2h: administered 2h before the aggregation test
Procedure: (§1) A study of the inhibitory activity of the compounds of formula I on platelet aggregation was carried out in vitro, i.e. by direct contact of solutions of variable concentrations of the compounds with platelets freshly separated from a sample of whole blood, taken under standardized conditions, from laboratory animals (guinea pigs) and from healthy human subjects who have not received any substances or drugs that might interfere with blood clotting. The anti-platelet-aggregating activity was also studied ex vivo/vitro, i.e. after administration of the substances claimed in guinea pigs to measure the intensity and duration of the anti-aggregating action induced by the fraction of the test product absorbed and circulating in the blood.
2. ex vivo/vitro Pharmacological Study in Guinea Pigs
Evaluation of the anti-platelet-aggregating activity of the compounds is carried out in the same guinea pigs as those mentioned above (Dunkin-Hartley strain). The administration of each product in a range of doses from 150 mg/kg to 10 mg/kg and of each vehicle (5 ml/kg) is carried out via the gastric route (g.r.) 1h or 2h or 4h or 6h or 8h or 12h before blood is taken from the guinea pigs fasted the day before. The allocation of the treatments to the animals is random.
The blood is taken and then treated under the same conditions as those described above for the in vitro studies.
The results of the inhibition of the platelet aggregation obtained for each test concentration make it possible to calculate the IC50 concentration of each test product and the kinetics of the inhibitory effect and its duration of action.

Guinea Pig Platelets = assay: In vitro inhibition of collagen-induced platelet aggregation, guinea pig platelet-rich plasma; format: cell-based; settings: guinea pig PRP, collagen 1 μg/ml, 3 minutes of contact at 37° C.
Procedure: as §1
1.1. Studies on Guinea Pig Platelets
Blood is taken by intracardiac puncture from male Dunkin-Hartley guinea pigs (weighing about 330 g), at a rate of 4.5 ml per 0.5 ml of trisodium citrate (concentration of the aqueous solution: 1.55%) in order to prevent all trace of clotting. The platelet-rich plasma (PRP) is obtained by centrifuging the tubes of whole blood for 15 minutes at 150 g.
The PRPs are collected as. “pools”. The platelets contained in these pools are counted using a Coulter ZM haematology automatic device: if necessary, a dilution is carried out in order for the platelet concentration in the plasma to be between 200,000 and 400,000 platelets/mm^3. Simultaneously, other samples of these pools serve to prepare the platelet-poor plasma (PPP) by centrifugation at 1,500 g for 15 minutes.
The kinetic study of the platelet aggregation is carried out by adding a collagen solution (1 μg/ml) to a volume of PRP, using a Chrono-log Corporation aggregometer (490-D1 or 560 VS) which uses an optical detection of the appearance of the thrombus.
The measurements of the aggregation inhibition are carried out after 3 minutes of contact at 37° C. with agitation.

[2] = Cavia porcellus, Platelet, 0.05 h

Molecule	IC50 (Guinea Pig Platelets; [2]) [µM]	% of g.r. inhibition guinea pig ex vivo d = 150 mg/kg −1 h [1] [%]	% of g.r. inhibition guinea pig ex vivo d = 150 mg/kg −2 h [1] [%]	also measured
3-{[2-(4-{4-[amino(imino)methyl]phenyl}-2-oxopiperazino)acetyl]amino}-3-(pyridyl)propanoic acid acetate [Example 21]		−78	−79	IC50 (Human Platelets): 8.6e-07 M; IC50 (Guinea Pig Platelets): 0.16 µM
CCOC(=O)CCNC(=O)CN1CCN(c2ccc(C(N)=NO)cc2)CC1=O [Example 1, Ethyl 3-{[12-(4-{4-[amino(hydroxyimino)methyl]phenyl}-2-oxopiperazino)acetyl]amino}propanoate]		−72	−73	IC50 (Guinea Pig Platelets): > 1000 µM
CCOC(=O)CC(NC(=O)CN1CCN(c2ccc(C(N)=NO)cc2)CC1=O)c1ccc2c(c1)OCO2 (stereo not shown) [Example 3, Ethyl 3-{[2-(4-{4-[amino(hydroxyimino)methyl]phenyl}-2-oxopiperazino)acetyl]amino}-3-(1,3-benzodioxol-5-yl)propanoate]		−72	−69	anti-aggregating action ex-vivo in guinea pigs, oral dose 10 mg/kg, 1h [1]: 69%; anti-aggregating action ex-vivo in guinea pigs, oral dose 10 mg/kg, 2h [1]: 72%
CCOC(=O)CC(CCc1ccccc1)NC(=O)CN1CCN(c2ccc(C(N)=NO)cc2)CC1=O (stereo not shown) [Example 7, Ethyl 3-{[2-(4-{4-[amino(hydroxyimino)methyl]phenyl}-2-oxopiperazino)acetyl]amino}-5-phenylpentanoate]				anti-aggregating action ex-vivo in guinea pigs, oral dose 10 mg/kg, 1h [1]: 72%
CC(=O)O.CCOC(=O)CCNC(=O)CN1CCN(c2ccc(C(=N)N)cc2)CC1=O [Example 16, Ethyl 3-{[2-(4-{4-[amino(imino)methyl]phenyl}-2-oxopiperazino)acetyl]amino}proanoate acetate]		−75	−73	IC50 (Guinea Pig Platelets): 3.8 µM
Cl.N=C(N)c1ccc(N2CCN(CC(=O)NCCC(=O)O)C(=O)C2)cc1 [Example 17, 3-{[2-(4-{4-[amino(imino)methyl]phenyl}-2-oxopiperazino)acetyl]amino}propanoic acid hydrochloride]	4.8	−43	−38	IC50 (Human Platelets; Platelet, 0.05 h): 5.2e-06 M
CC(=O)O.CCOC(=O)CC(NC(=O)CN1CCN(c2ccc(C(=N)N)cc2)CC1=O)c1ccc2c(c1)OCO2 (stereo not shown) [Example 18, Ethyl 3-{[2-(4-{4-[amino(imino)methyl]phenyl}-2-oxopiperazino)acetyl]amino}-3-(1,3-benzodioxol-5-yl)propanoate acetate]	0.2	−70	−69	IC50 (Human Platelets; Platelet, 0.05 h): 8.1e-05 M
Cl.N=C(N)c1ccc(N2CCN(CC(=O)NC(CC(=O)O)c3ccc4c(c3)OCO4)C(=O)C2)cc1 (stereo not shown) [Example 19, 3-{[2-(4-{4-[amino(imino)methyl]phenyl}-2-oxopiperazino)acetyl]amino}-3-(1,3-benzodioxol-5-yl)propanoic acid hydrochloride]	0.15	−69	−78	IC50 (Human Platelets; Platelet, 0.05 h): 3.4e-07 M; anti-aggregating action ex-vivo in guinea pigs, oral dose 10 mg/kg, 1h [1]: 57%; anti-aggregating action ex-vivo in guinea pigs, oral dose 10 mg/kg, 2h [1]: 24%
CCOC(=O)CC(CCc1ccccc1)NC(=O)CN1CCN(c2ccc(C(=N)N)cc2)CC1=O (stereo not shown) [Example 22, Ethyl 3-{[2-(4-{4-[amino(imino)methyl]phenyl}-2-oxopiperazino)acetyl]amino}-5-phenylpentanoate acetate]	0.51			IC50 (Human Platelets; Platelet, 0.05 h): 7.1e-05 M
Ethyl 3-{[2-(4-{4-[amino(hydroxyimino)methyl]phenyl}-2-oxopiperazino)acetyl]amino}-3-(pyridyl)propanoate [Example 5]		−72	−75	IC50 (Guinea Pig Platelets): 100 µM

Continued, in another order:

IC50 (Guinea Pig Platelets; [2]) [µM]	Molecule	% of g.r. inhibition guinea pig ex vivo d = 150 mg/kg −1 h [1] [%]	% of g.r. inhibition guinea pig ex vivo d = 150 mg/kg −2 h [1] [%]	also measured
46	CCOC(=O)CC(NC(=O)CN1CCN(c2ccc(C(=N)N)cc2)CC1=O)C1CCCCC1 (stereo not shown) [Example 23, Ethyl 3-{[2-(4-{4-[amino(imino)methyl]phenyl}-2-oxopiperazino)acetyl]amino}-3-cyclohexylpropanoate acetate]			
4.6	CCOC(=O)CC(CC(C)C)NC(=O)CN1CCN(c2ccc(C(=N)N)cc2)CC1=O (stereo not shown) [Example 24, Ethyl 3-{[2-(4-{4-[amino(imino)methyl]phenyl}-2-oxopiperazino)acetyl]amino}-5-methylhexanoate acetate]			
440	CCOC(=O)CC(NC(=O)CN1CCN(c2ccc(C(=N)N)cc2)CC1=O)C(C)(C)C (stereo not shown) [Example 25, Ethyl 3-{[2-(4-{4-[amino(imino)methyl]phenyl}-2-oxopiperazino)acetyl]amino}-4,4-dimethylpentanoate acetate]			
4.5	CCOC(=O)CC(NC(=O)CN1CCN(c2ccc(C(=N)N)cc2)CC1=O)C(C)C (stereo not shown) [Example 26, Ethyl 3-{[2-(4-{4-[amino(imino)methyl]phenyl}-2-oxopiperazino)acetyl]amino}-4-methylpentanoate acetate]			
38	CC(=O)O.CCOC(=O)CCNC(=O)CN1CCN(c2ccc(C(=N)N)cc2)C(=O)C1 [Example 27, Ethyl 3-{[2-(4-{4-[amino(imino)methyl]phenyl}-3-oxopiperazino)acetyl]amino}propanoate acetate]	−8	−9	
16	Cl.N=C(N)c1ccc(N2CCN(CC(=O)NCCC(=O)O)CC2=O)cc1 [Example 28, 3-{[2-(4-{4-[amino(imino)methyl]phenyl}-3-oxopiperazino)acetyl]amino}propanoic acid hydrochloride]	−28	−23	IC50 (Human Platelets; Platelet, 0.05 h): 1.4e-06 M
2.4	CCOC(=O)CC(CCc1ccccc1)NC(=O)CN1CCN(c2ccc(C(=N)N3CCCCC3)cc2)CC1=O (stereo not shown) [Example 32, Ethyl 3-{[2-(4-{4-[imino(piperidino)methyl]phenyl}-2-oxopiperazino)acetyl]amino}-5-phenylpentanoate]			
0.65	CCOC(=O)CC(CCc1ccccc1)NC(=O)CN1CCN(c2ccc(C(=N)N3CCOCC3)cc2)CC1=O (stereo not shown) [Example 33, Ethyl 3-{[2-{4-{4-[imino(morpholino)methyl]phenyl}-2-oxopiperazino)acetyl]amino)-5-phenylpentanoate]			
0.99	CCOC(=O)CC(NC(=O)CN1CCN(c2ccc(C(=N)N3CCCCC3)cc2)CC1=O)c1ccc2c(c1)OCO2 (stereo not shown) [Example 34, Ethyl 3-(1,3-benzodioxol-5-yl)-3-{[2-(4-{4-[imino(piperidino)methyl]phenyl}-2-oxopiperazino)-acetyl]amino}propanoate hydrochloride]			
0.47	CCOC(=O)CC(NC(=O)CN1CCN(c2ccc(C(=N)N3CCOCC3)cc2)CC1=O)c1ccc2c(c1)OCO2 (stereo not shown) [Example 35, Ethyl 3-(1,3-benzodioxol-5-yl)-3-{[2-(4-{4-[imino-(morpholino)methyl]phenyl}-2-oxopiperazino)acetyl]-amino}propanoate hydrochloride]			
